The record followed here is patent publication US9796711B2, “Substituted pyrazolo[3,4-b]pyridin-6-carboxylic acids and method of use” (AbbVie S.àr.l., priority 2015, dated 2017).

Molecules are shown by their SMILES.

Assay [1] has as its target T1, ΔF508-CFTR (Homo sapiens, UniProt P13569, DEL508-508).
T1 construct: host or cells: CFBE41o-, doxycycline-inducible
Kind of assay: CFTR cell surface levels using HRP-tagged ΔF508-CFTR expressing CFBE cells, intrinsic corrector capacity. Particulars: for EC50: read-out: EC50. Type of assay: cell-based. In outline:
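Here the cells express ΔF508-CFTR with horseradish peroxidase inserted in extracellular loop 4, so only rescued channel at the surface gives luminescent signal. Compounds act on their own, 20 h at the reduced temperature of 33 °C; values are percent activity relative to DMSO and a 3 μM corrector.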

In assay [2] the target is T1, ΔF508-CFTR. Kind of assay: CFTR cell surface levels using HRP-tagged ΔF508-CFTR expressing CFBE cells, in the presence of a co-corrector. Particulars: HRP-tagged ΔF508-CFTR expressing CFBE cells, in the presence of 3 μM co-corrector; for EC50: read-out: EC50. It is filed as cell-based. Put shortly:
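Cells were seeded with 0.5 μg/mL doxycycline and held 68 h at 37 °C. Test compounds plus 3 μM co-corrector (final 0.1% DMSO) were then added for 20 h at 33 °C. Washed cells received HRP substrate, and luminescence was normalized between DMSO and 3 μM co-corrector controls.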

The mark [3] stands for this setting: HRP-tagged ΔF508-CFTR expressing CFBE cells, intrinsic corrector capacity (no co-corrector), 33° C., 20 hours.
[4] abbreviates: HRP-tagged ΔF508-CFTR CFBE41o- cells, compounds alone (intrinsic corrector capacity), 20 hours at 33° C., positive control 3 μM corrector.
Setting [5] is: HRP-tagged ΔF508-CFTR CFBE41o- cells, compounds alone (intrinsic corrector capacity), 20 hours at 33° C.

T1 sequence (P13569 with tags, fused parts or gaps DEL508-508): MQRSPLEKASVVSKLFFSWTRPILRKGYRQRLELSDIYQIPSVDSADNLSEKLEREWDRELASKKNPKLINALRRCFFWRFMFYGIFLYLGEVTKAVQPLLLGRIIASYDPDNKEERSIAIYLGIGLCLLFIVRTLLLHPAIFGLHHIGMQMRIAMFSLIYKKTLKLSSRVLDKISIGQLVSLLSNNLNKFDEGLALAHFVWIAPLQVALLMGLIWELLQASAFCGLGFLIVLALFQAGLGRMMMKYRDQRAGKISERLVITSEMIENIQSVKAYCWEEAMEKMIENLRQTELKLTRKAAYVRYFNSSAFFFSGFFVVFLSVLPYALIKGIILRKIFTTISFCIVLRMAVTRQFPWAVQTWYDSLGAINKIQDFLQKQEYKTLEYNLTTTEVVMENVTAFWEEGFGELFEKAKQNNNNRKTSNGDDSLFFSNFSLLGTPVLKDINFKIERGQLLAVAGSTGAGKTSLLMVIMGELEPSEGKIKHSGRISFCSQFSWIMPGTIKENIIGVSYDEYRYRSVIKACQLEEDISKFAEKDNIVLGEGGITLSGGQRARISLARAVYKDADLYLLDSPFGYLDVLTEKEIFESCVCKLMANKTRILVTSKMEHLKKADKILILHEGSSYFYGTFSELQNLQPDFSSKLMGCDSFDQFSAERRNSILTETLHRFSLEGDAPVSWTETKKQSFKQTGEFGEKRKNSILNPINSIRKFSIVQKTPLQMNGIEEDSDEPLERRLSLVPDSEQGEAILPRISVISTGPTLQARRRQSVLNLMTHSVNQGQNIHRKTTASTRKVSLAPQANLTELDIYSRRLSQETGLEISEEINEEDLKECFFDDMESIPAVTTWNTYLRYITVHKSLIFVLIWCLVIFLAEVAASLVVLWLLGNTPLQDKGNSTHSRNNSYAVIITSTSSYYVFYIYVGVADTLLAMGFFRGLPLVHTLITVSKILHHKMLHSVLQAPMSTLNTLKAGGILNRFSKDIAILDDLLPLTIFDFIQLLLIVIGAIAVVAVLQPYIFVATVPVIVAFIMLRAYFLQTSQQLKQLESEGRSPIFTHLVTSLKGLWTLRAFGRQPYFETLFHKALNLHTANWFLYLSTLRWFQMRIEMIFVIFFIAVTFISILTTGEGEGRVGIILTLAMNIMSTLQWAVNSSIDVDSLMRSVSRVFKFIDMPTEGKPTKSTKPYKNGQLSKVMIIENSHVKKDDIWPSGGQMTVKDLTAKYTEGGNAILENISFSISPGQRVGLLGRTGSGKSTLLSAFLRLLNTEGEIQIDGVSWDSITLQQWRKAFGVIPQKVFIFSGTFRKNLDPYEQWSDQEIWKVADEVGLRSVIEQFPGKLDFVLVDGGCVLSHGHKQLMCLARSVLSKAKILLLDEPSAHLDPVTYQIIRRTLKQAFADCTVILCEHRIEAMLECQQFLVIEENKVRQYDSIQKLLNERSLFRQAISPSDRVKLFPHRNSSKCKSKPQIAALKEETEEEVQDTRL

Broadly, the EC50 is the concentration that produces a half-maximal response. As for `O=C(O)c1cc(N2CC3(CCOC3)C2)c2c(C3CCC3)nn(-c3ccccc3)c2n1` [compound 534, 3-cyclobutyl-4-(6-oxa-2-azaspiro[3.4]octan-2-yl)-1-phenyl-1H-pyrazolo[3,4-b]pyridine-6-carboxylic acid], on ΔF508-CFTR [1] (setting [3]), the “% Activation” value was 111% and the concentration giving a half-maximal response (EC50) stood at 3330 nM. In addition, on ΔF508-CFTR [2], the “% Activation” value stood at 281.95% and the EC50 turned out to be 893 nM.

For the compound `CC(C)(C)OC(=O)N1CCCC1c1nn(-c2ccccc2)c2nc(C(=O)O)cc(-c3ccc(N4CCOCC4)nc3)c12` (stereo not shown) [compound 103, 3-[1-(tert-butoxycarbonyl)pyrrolidin-2-yl]-4-[6-(morpholin-4-yl)pyridin-3-yl]-1-phenyl-1H-pyrazolo[3,4-b]pyridine-6-carboxylic acid], the “% Activation” value amounted to 115.65% on ΔF508-CFTR [1] (setting [4]) and 302% at ΔF508-CFTR [2]. The EC50 at ΔF508-CFTR [1] (setting [5]) amounted to 703 nM; at ΔF508-CFTR [2], 694 nM.

In the case of `Cc1nn(-c2ccccc2)c2nc(C(=O)O)cc(-c3ccc(N4CCC(F)(F)C4)cc3)c12` [compound 111, 4-[4-(3,3-difluoropyrrolidin-1-yl)phenyl]-3-methyl-1-phenyl-1H-pyrazolo[3,4-b]pyridine-6-carboxylic acid], the “% Activation” value worked out at 110.34% on ΔF508-CFTR [1] (setting [4]) and 299.8% at ΔF508-CFTR [2]. The EC50 on ΔF508-CFTR [1] (setting [5]) stood at 459 nM; on ΔF508-CFTR [2] it was 424 nM.

Turning to `COCCN(CCOC)c1ccc(-c2cc(C(=O)O)nc3c2c(C(C)C)nn3-c2ccnc(N3CCOCC3)c2)cn1` [compound 524, 4-{6-[bis(2-methoxyethyl)amino]pyridin-3-yl}-1-[2-(morpholin-4-yl)pyridin-4-yl]-3-(propan-2-yl)-1H-pyrazolo[3,4-b]pyridine-6-carboxylic acid], on ΔF508-CFTR [1] (setting [3]), the “% Activation” value was found to be 134.7% and the 50% effective concentration (EC50) was determined as 454 nM. Moreover, on ΔF508-CFTR [2], the “% Activation” value is on record as 354.25% and the EC50 is 261 nM.

Consider `CC(C)c1nn(-c2cccc(N(C)C)c2)c2nc(C(=O)O)cc(-c3cnc(N4CCC(C#N)CC4)nc3)c12` [compound 199, 4-[2-(4-cyanopiperidin-1-yl)pyrimidin-5-yl]-1-[3-(dimethylamino)phenyl]-3-(propan-2-yl)-1H-pyrazolo[3,4-b]pyridine-6-carboxylic acid], for which the “% Activation” value on ΔF508-CFTR [1] (setting [4]) was determined as 356.9%; at ΔF508-CFTR [2], 602.4%. Further, the 50% effective concentration (EC50) on ΔF508-CFTR [1] (setting [5]) turned out to be 1220 nM; at ΔF508-CFTR [2] it was 917 nM.

Consider `Cc1nn(-c2ccccc2)c2nc(C(=O)O)cc(N3CC[C@@H](F)C3)c12` [compound 298, 4-[(3R)-3-fluoropyrrolidin-1-yl]-3-methyl-1-phenyl-1H-pyrazolo[3,4-b]pyridine-6-carboxylic acid], for which the “% Activation” value at ΔF508-CFTR [1] (setting [4]) is recorded as 52.345%; on ΔF508-CFTR [2], 206.45%. Moreover, the concentration for a half-maximal effect (EC50) at ΔF508-CFTR [1] (setting [5]) is 2510 nM; on ΔF508-CFTR [2], 2440 nM.

`CC(C)c1nn(-c2ccc(F)cc2)c2nc(C(=O)O)cc(N3CCC(CCN4CCN(C)CC4)CC3)c12` [compound 785, 1-(4-fluorophenyl)-4-{4-[2-(4-methylpiperazin-1-yl)ethyl]piperidin-1-yl}-3-(propan-2-yl)-1H-pyrazolo[3,4-b]pyridine-6-carboxylic acid]: at ΔF508-CFTR [1] (setting [3]), the “% Activation” value is 264.9% and the concentration for a half-maximal effect (EC50) came out at 622 nM. Also, on ΔF508-CFTR [2], the “% Activation” value is recorded as 482.8% and the EC50 turned out to be 558 nM.

As to `COCCN(C)c1ccc(-c2cc(C(=O)O)nc3c2c(C(C)C)nn3-c2cccc(N3CCOCC3)c2)cc1` [compound 188, 4-{4-[(2-methoxyethyl)(methyl)amino]phenyl}-1[3-(morpholin-4-yl)phenyl]-3-(propan-2-yl)-1H-pyrazolo[3,4-b]pyridine-6-carboxylic acid], the “% Activation” value amounted to 282.4% on ΔF508-CFTR [1] (setting [4]) and 432.9% at ΔF508-CFTR [2]. The concentration for a half-maximal effect (EC50) on ΔF508-CFTR [1] (setting [5]) is 636 nM; on ΔF508-CFTR [2], 499 nM.

As for `O=C(O)c1cc(N2CCC(CN3CC4CC4C3)CC2)c2c(C3CCC3)nn(-c3ccccc3)c2n1` (stereo not shown) [compound 844, 4-{4-[(3-azabicyclo[3.1.0]hexan-3-yl)methyl]piperidin-1-yl}-3-cyclobutyl-1-phenyl-1H-pyrazolo[3,4-b]pyridine-6-carboxylic acid], the “% Activation” value at ΔF508-CFTR [1] (setting [3]) worked out at 184.9%; on ΔF508-CFTR [2], 429.2%. Moreover, the EC50 on ΔF508-CFTR [1] (setting [3]) is 210 nM; on ΔF508-CFTR [2], 206 nM.

With `O=C(O)c1cc(N2C[C@@H](F)C[C@H]2CO)c2c(C3CCC3)nn(-c3ccccc3)c2n1` [compound 507, 3-cyclobutyl-4-[(2S,4S)-4-fluoro-2-(hydroxymethyl)pyrrolidin-1-yl]-1-phenyl-1H-pyrazolo[3,4-b]pyridine-6-carboxylic acid], on ΔF508-CFTR [1] (setting [3]), the “% Activation” value is listed as 132.8% and the EC50 was determined as 2170 nM. In addition, on ΔF508-CFTR [2], the “% Activation” value amounted to 218.3% and the EC50 is 2520 nM.

Regarding `CC(C)c1nn(C2CCCC2)c2nc(C(=O)O)cc(-c3cnc(N(C)C)nc3)c12` [compound 67, 1-cyclopentyl-4-[2-(dimethylamino)pyrimidin-5-yl]-3-(propan-2-yl)-1H-pyrazolo[3,4-b]pyridine-6-carboxylic acid], the “% Activation” value on ΔF508-CFTR [1] (setting [4]) is reported as 117.6%; on ΔF508-CFTR [2], 280.35%. The results for the EC50 on ΔF508-CFTR [1] (setting [5]) and at ΔF508-CFTR [2] were 1590 nM and 1260 nM, respectively.

`O=C(O)c1cc(N2CC3(CCCCC3)C2)c2c(C3CCC3)nn(-c3ccccc3)c2n1` [compound 409, 4-(2-azaspiro[3.5]nonan-2-yl)-3-cyclobutyl-1-phenyl-1H-pyrazolo[3,4-b]pyridine-6-carboxylic acid]: at ΔF508-CFTR [1] (setting [3]), the “% Activation” value is on record as 75.39% and the EC50 turned out to be 1070 nM. On ΔF508-CFTR [2], the “% Activation” value is on record as 249.3% and the EC50 was found to be 1110 nM.

Turning to `O=C1CC[C@H](Oc2cc(C(=O)O)nc3c2c(C2CCC2)nn3-c2ccccc2)CN1` [compound 619, 3-cyclobutyl-4-{[(3S)-6-oxopiperidin-3-yl]oxy}-1-phenyl-1H-pyrazolo[3,4-b]pyridine-6-carboxylic acid], on ΔF508-CFTR [1] (setting [3]), the “% Activation” value came out at 7.484% and the EC50 was above 10000 nM. Besides, on ΔF508-CFTR [2], the “% Activation” value came out at 134.1% and the EC50 is above 10000 nM.

Turning to `Cc1ncn(C)c(=O)c1CCN1CCN(c2cc(C(=O)O)nc3c2c(C2CCC2)nn3-c2ccccc2)CC1` [compound 502, 3-cyclobutyl-4-{4-[2-(1,4-dimethyl-6-oxo-1,6-dihydropyrimidin-5-yl)ethyl]piperazin-1-yl}-1-phenyl-1H-pyrazolo[3,4-b]pyridine-6-carboxylic acid], at ΔF508-CFTR [1] (setting [3]), the “% Activation” value came to 152% and the EC50 stood at 3340 nM. At ΔF508-CFTR [2], the “% Activation” value amounted to 327% and the EC50 came to 1350 nM.

As for `COCC1CCN(c2cc(C(=O)O)nc3c2c(C(C)C)nn3-c2ccc(F)cc2)CC1` [compound 391, 1-(4-fluorophenyl)-4-[4-(methoxymethyl)piperidin-1-yl]-3-(propan-2-yl)-1H-pyrazolo[3,4-b]pyridine-6-carboxylic acid], the “% Activation” value on ΔF508-CFTR [1] (setting [4]) is reported as 306.23%; on ΔF508-CFTR [2], 528.7%. Besides, the EC50 was found to be 590 nM on ΔF508-CFTR [1] (setting [5]) and 374 nM on ΔF508-CFTR [2].

Regarding `CC(C)c1nn(-c2cccc(OC(F)(F)F)c2)c2nc(C(=O)O)cc(-c3ccc(N4CCOCC4)cc3)c12` [compound 269, 4-[4-(morpholin-4-yl)phenyl]-3-(propan-2-yl)-1-[3-(trifluoromethoxy)phenyl]-1H-pyrazolo[3,4-b]pyridine-6-carboxylic acid], the “% Activation” value stood at 264.3% at ΔF508-CFTR [1] (setting [4]) and 452.33% on ΔF508-CFTR [2]. The EC50 on ΔF508-CFTR [1] (setting [5]) was 581 nM; on ΔF508-CFTR [2], 391 nM.
